Assay results published in patent US12458647B2, “Macrocyclic derivative and use thereof” (Guangzhou Joyo Pharmatech Co., Ltd., priority 2022, dated 2025).

Experiments:
PK-59 cell line = test: In vitro cell proliferation experiment (5 days), PK-59; format: cell-based; settings: PK-59, 5 days; read-out: Inhibitory Activity IC50
Procedure: (§1) RPMI 1640 medium, DMEM, Ham's F12 medium, F12K medium, IMDM and penicillin/streptomycin antibiotics were purchased from Gibco, fetal bovine serum was purchased from Hyclone, Envision multilabel plate reader (PerkinElmer). […]
(§2) The test compound was diluted by 5-fold to 8 concentrations with a pipette, i.e., from 2 mM to 25.6 nM, and replicate wells were set up for the experiment. […] Another cell plate was prepared, and the signal value was read as the maximum value (the maximum value in the following equation) on the day of dosing for data analysis.
(§3) 50 μL of cell viability chemiluminescent detection reagent was added to the cell plate and incubated at room temperature for 30 minutes to stabilize the luminescence signal. A multilabel plate reader was used for reading. […]

Capan-1 cells = test: In vitro cell proliferation experiment (5 days), Capan-1; format: cell-based; settings: Capan-1, 5 days; read-out: Inhibitory Activity IC50
Procedure: as §1, §2, §3

A427 cell line = test: In vitro cell proliferation experiment (5 days), A427; format: cell-based; settings: A427, 5 days; read-out: Inhibitory Activity IC50
Procedure: as §1, §2, §3

HCT116 cells = test: In vitro cell proliferation experiment (5 days), HCT116; format: cell-based; settings: HCT116, 5 days; read-out: Inhibitory Activity IC50
Procedure: as §1, §2, §3

NCI—H727 cells = test: In vitro cell proliferation experiment (5 days), H727; format: cell-based; settings: H727, 5 days; read-out: Inhibitory Activity IC50
Procedure: as §1, §2, §3

[1] = Pharmacokinetics test in mice; format: in vivo, male CD-1 (ICR) mice; settings: male CD-1 mice
Procedure: The pharmacokinetic behavior of the compounds of the present disclosure was evaluated in male CD-1 (ICR) mice.
The compounds to be tested were dissolved in the vehicle (5% DMSO/10% solutol/85% water). Four male CD-1 mice were divided into 2 groups of 2 mice each. Group 1 mice were administered a single intravenous bolus injection of the compound at a dose of 1 mg/kg. Group 2 mice were administered a single dose of the compound by gavage at a dose of 10 mg/kg. Whole blood samples were collected at 0.083 (intravenous bolus group only), 0.25, 0.5, 1, 2, 4, 8 and 24 hours after dosing. The LC-MS/MS method was used to determine the concentration of the test compound in whole blood samples.

[2] = intravenous bolus 1 mg/kg, whole blood

| SMILES | IC50 (PK-59 cell line) [nM] | IC50 (Capan-1 cells) [nM] | IC50 (A427 cell line) [nM] | IC50 (HCT116 cells) [nM] | IC50 (NCI—H727 cells) [nM] | bioavailability (F) ([1]; gavage 10 mg/kg vs i.v. 1 mg/kg) [%] | AUC0-last ([1]; gavage 10 mg/kg, whole blood) | time to maximum concentration (τmax) ([1]; gavage 10 mg/kg, whole blood) [h] | apparent volume of distribution at steady state (Vd) [1, 2] [L/kg] | area under the whole blood concentration-time curve (AUC0-last) [1, 2] [µM·h] | elimination half-life (T1/2) [1, 2] [h] | whole blood clearance (C1) [1, 2] [L/h/kg] |
| --- | --- | --- | --- | --- | --- | --- | --- | --- | --- | --- | --- | --- |
| CCn1c(-c2cc(N3CCN(C)CC3)cnc2C(C)OC)c2c3cc(ccc31)-c1csc(n1)CC(NC(=O)C1C(C)C1C)C(=O)N1NC(C(=O)OCC(C)(C)C2)C2CC1C2 (single isomer, unassigned) [Compound 6A] | 2.3 | 2.5 | 13.3 | 5.5 | 0.4 | – | – | – | – | – | – | – |
| CCn1c(-c2cc(N3CCN(C)CC3)cnc2C(C)OC)c2c3cc(ccc31)-c1csc(n1)CC(NC(=O)C1CC1C)C(=O)N1NC(C(=O)OCC(C)(C)C2)C2CC1C2 (single isomer, unassigned) [Compound 7A] | – | – | – | – | – | 54.3 | 17,119 h·nmol/mL | 3.0 | 2.18 | 3.160 | 4.29 | 0.377 |
